Here are results for nine molecules from patent US12674148B2, “Cell-based reporter assay for screening inhibitors of coronavirus RNA-dependent RNA polymerase activity” (priority 2020, dated 2026).

The target in one series is MERS-CoV RdRp (Middle East respiratory syndrome-related coronavirus, UniProt K9N7C7). Put plainly: cell-based. The following applies: for inhibition at 100 µM: read-out: inhibition / reduction of MERS-CoV RdRp activity.
The next series concerns HEK293T cells. Put plainly: cytotoxicity / cell viability (CellTiter 96 AQueous One Solution).
Where [1] appears, read: HEK-293T, read-out: MERS-CoV RdRp activity (%).

Entries after “also recorded” stand apart in the source; their conditions may differ.

Chain of MERS-CoV RdRp (K9N7C7 4378-5310 limits assumed): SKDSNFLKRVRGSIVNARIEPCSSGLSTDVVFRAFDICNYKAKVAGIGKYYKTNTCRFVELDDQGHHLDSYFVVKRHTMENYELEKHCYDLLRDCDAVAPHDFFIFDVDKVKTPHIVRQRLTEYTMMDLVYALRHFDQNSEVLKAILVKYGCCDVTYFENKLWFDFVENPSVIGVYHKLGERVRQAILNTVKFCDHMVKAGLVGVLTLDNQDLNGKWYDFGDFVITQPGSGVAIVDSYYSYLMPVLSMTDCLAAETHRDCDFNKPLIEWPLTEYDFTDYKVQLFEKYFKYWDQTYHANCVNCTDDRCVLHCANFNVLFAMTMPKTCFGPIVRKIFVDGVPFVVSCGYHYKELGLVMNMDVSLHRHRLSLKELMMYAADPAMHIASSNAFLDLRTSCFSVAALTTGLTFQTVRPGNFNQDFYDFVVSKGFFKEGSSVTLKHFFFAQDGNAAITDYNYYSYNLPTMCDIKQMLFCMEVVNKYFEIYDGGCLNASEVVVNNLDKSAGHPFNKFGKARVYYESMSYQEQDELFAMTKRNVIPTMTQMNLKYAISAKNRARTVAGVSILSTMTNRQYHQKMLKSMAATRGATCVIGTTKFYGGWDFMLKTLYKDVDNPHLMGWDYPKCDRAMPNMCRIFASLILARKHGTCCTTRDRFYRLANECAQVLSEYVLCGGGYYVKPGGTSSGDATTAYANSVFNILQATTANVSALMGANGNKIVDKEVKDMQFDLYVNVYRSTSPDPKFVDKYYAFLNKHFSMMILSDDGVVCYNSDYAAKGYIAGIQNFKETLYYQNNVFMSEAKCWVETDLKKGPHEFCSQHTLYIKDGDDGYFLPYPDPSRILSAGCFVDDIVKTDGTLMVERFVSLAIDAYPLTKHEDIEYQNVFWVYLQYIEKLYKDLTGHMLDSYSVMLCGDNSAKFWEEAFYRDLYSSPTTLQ

As for `CC(C)[C@H](N)C(=O)OCCOCn1cnc2c(=O)[nH]c(N)nc21` [valacyclovir], the “effect on MERS-CoV RdRp activity (in words)” value (from here on “effect”) at MERS-CoV RdRp is “did not reduce; also recorded: no significant effect”. For the same molecule, the activity at 100 µM on MERS-CoV RdRp (setting [1]) came to 90.2 ± 3.2%.
Consider `Nc1ncnc2c1ncn2[C@@H]1O[C@H](CO)[C@@H](O)[C@@H]1O` [vidarabine], for which, on MERS-CoV RdRp, the “FLuc activity (internal control)” value is “reduced in a concentration-dependent manner”, the NLuc activity result was “reduced in a concentration-dependent manner” and the “effect” value is “did not reduce; also recorded: did not affect the NLuc/FLuc ratio or MERS-CoV RdRp activity; also recorded: no significant effect”. In addition, the activity at 100 µM at MERS-CoV RdRp (setting [1]) amounted to 89.9 ± 2.9%. For the same molecule, in the series on HEK293T cells (concentration not stated (tested up to 100 μM)), the cytotoxicity result is “did not show cytotoxicity”.
For `NC(=O)c1nc(F)c[nH]c1=O` [favipiravir], the “effect” value at MERS-CoV RdRp is recorded as “no significant effect”. Also, on MERS-CoV RdRp (setting [1]), the activity at 100 µM stood at 85.8 ± 2.4%. Also, the inhibition at 100 µM at MERS-CoV RdRp (HEK-293T) is ~10%.
The term IC50 denotes the midpoint of a concentration-inhibition curve. At MERS-CoV RdRp, `CCC(CC)COC(=O)[C@H](C)N[P@](=O)(OC[C@H]1O[C@@](C#N)(c2ccc3c(N)ncnn23)[C@H](O)[C@@H]1O)Oc1ccccc1` [remdesivir] came in with an IC50 of 5.028 ± 0.035 µM. For the same molecule, the activity at 12 µM on MERS-CoV RdRp (setting [1]) stood at 22.3 ± 0.3%. The cytotoxicity result with HEK293T cells (HEK293T cells, 12 μM) is given as “no cytotoxicity was observed”.
For the molecule `NC(=O)c1ncn([C@@H]2O[C@H](CO)[C@@H](O)[C@H]2O)n1` [ribavirin], at MERS-CoV RdRp, the “effect” value is given as “no significant effect”. Also, the activity at 100 µM on MERS-CoV RdRp (setting [1]) was determined as 60.3 ± 2.9%. In addition, on MERS-CoV RdRp (HEK-293T), the inhibition at 100 µM is ~40%.
For `CC(C)OC(=O)[C@H](C)N[P@](=O)(OC[C@H]1O[C@@H](n2ccc(=O)[nH]c2=O)[C@](C)(F)[C@@H]1O)Oc1ccccc1` [sofosbuvir], on MERS-CoV RdRp, the “effect” value is “no significant effect”. In addition, the activity at 100 µM on MERS-CoV RdRp (setting [1]) was 62.4 ± 5.3%. Moreover, the inhibition at 100 µM at MERS-CoV RdRp (HEK-293T) was ~40%.
On to `Nc1ccn([C@@H]2CS[C@H](CO)O2)c(=O)n1` [lamivudine], for which, on MERS-CoV RdRp (setting [1]), the activity at 100 µM was found to be 98.3 ± 1.2%.
For the molecule `Cc1cn([C@H]2C[C@H](N=[N+]=[N-])[C@@H](CO)O2)c(=O)[nH]c1=O` [zidovudine], at MERS-CoV RdRp, the “effect” value is reported as “did not reduce; also recorded: no significant effect”. The activity at 100 µM at MERS-CoV RdRp (setting [1]) came to 111 ± 3.7%.
Regarding `COc1c(-c2ccc3cc(NS(C)(=O)=O)ccc3c2)cc(-n2ccc(=O)[nH]c2=O)cc1C(C)(C)C` [dasabuvir], on MERS-CoV RdRp, the concentration for half-maximal inhibition (IC50) amounted to 11.6 µM; the “effect” value is listed as “significantly inhibited, but not completely inhibited”; the “reduction of MERS-CoV RdRp activity” value is recorded as “about 50%”. Further, the activity at 10 µM on MERS-CoV RdRp (setting [1]) was determined as 51.5 ± 4.2%. For the same molecule, the cytotoxicity result in the series with HEK293T cells (HEK293T cells, 10 μM, 18 hours) was “no cytotoxicity was observed”. In addition, the “concentration at which cytotoxicity was reduced by half” value in the series on HEK293T cells (HEK293T cells, 18 hours) came out at 27.143 µM. Besides, the cytotoxicity result in the series with HEK293T cells (HEK293T cells, concentration exceeding 10 μM, 18 hours) is reported as “cytotoxicity was observed”.
